These results are taken from US20100311729A1, “Substituted imidazopyridazines and pyrrolopyrimidines as lipid kinase inhibitors” (priority 2007, published 2010).

Holding throughout (assay type): biochemical
The target in assay [1] is T1, PI3K delta (Homo sapiens, UniProt O00329).
T1 construct: for the full-length p110-d subunit are generated and fused by overlapping PCR; His tag (C); made in house; host or cells: baculovirus; Tn5 (Trichoplusia ni) or TiniPro insect cells
Kind of assay: PI3 kinase assay (Kinase-Glo luminescence), PI3K delta. The conditions noted are these: Enzymatic Data; read-out: PI3K delta IC50 [umol]. A digest of the protocol: (§1)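 Recombinant PI3K constructs (alfa 10 nM, delta 10 nM, gamma 150 nM) with 1 μM ATP and 10 μg/mL phosphatidylinositol in Tris pH 7.5, MgCl2, NaCl, CHAPS, DTT; 60 min (alfa, delta) or 120 min (gamma) at room temperature. ATP depletion read by Kinase-Glo luminescence; IC50 from 4-parameter logistic fit over 8 concentrations.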

Assay [2] addresses T2, PI3K gamma (Homo sapiens, UniProt P48736).
T2 construct: PI3Kγ BV-950 p110g(D144aa)-C-Term His Tag; His tag (C); made in house; host or cells: construct from the Roger Williams lab (MRC LMB) in pVL1393; baculovirus; Tn5 (Trichoplusia ni) or TiniPro insect cells
Kind of assay: PI3 kinase assay (Kinase-Glo luminescence), PI3K gamma. The settings on record: Enzymatic Data; read-out: PI3K gamma IC50 [umol]. The method in brief: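 Percent inhibition at eight concentrations (typically 10 to 0.003 […]) fitted to a four-parameter logistic model to give IC50. Reaction initiated with ATP; final ATP 1 μM and phosphatidylinositol 10 μg/mL; ATP consumption read by Kinase-Glo luminescence.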

In assay [3] the target is T3, PI3K beta (Homo sapiens, UniProt P42338).
T3 construct: for the full-length p110-b subunit are generated and fused by overlapping PCR; His tag (C); made in house; host or cells: baculovirus; Tn5 (Trichoplusia ni) or TiniPro insect cells
T3 sequence (P42338 with tags, fused parts or gaps limits assumed): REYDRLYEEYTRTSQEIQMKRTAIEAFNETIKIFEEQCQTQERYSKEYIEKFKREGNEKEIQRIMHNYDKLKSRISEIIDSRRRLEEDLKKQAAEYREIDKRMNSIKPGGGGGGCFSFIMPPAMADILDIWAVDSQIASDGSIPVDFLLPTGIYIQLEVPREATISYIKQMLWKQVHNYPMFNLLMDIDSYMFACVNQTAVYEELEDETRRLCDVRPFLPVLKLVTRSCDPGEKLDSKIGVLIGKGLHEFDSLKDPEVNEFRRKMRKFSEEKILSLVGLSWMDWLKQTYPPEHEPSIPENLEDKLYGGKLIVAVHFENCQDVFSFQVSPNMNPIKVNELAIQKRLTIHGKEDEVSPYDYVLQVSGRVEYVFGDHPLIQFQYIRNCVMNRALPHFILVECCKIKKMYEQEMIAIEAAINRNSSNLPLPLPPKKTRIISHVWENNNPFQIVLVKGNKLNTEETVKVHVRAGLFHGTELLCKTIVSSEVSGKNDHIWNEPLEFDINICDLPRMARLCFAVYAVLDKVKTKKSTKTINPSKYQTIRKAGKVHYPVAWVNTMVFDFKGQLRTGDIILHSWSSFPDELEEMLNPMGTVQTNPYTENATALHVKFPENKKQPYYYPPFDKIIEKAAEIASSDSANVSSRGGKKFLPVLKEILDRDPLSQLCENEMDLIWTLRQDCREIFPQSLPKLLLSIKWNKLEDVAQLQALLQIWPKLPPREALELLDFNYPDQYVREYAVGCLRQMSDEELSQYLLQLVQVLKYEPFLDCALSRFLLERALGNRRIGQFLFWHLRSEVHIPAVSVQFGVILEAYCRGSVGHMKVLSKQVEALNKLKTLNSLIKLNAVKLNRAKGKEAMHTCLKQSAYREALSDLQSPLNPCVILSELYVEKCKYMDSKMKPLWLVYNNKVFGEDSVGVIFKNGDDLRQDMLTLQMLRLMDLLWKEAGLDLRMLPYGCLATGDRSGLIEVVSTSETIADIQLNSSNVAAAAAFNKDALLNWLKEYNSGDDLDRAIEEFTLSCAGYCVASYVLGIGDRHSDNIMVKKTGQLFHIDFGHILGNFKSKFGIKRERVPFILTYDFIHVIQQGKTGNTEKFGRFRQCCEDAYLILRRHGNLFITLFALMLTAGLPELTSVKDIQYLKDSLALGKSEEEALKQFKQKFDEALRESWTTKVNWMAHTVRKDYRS
Briefly: PI3 kinase assay (Kinase-Glo luminescence), PI3K beta. The conditions noted are these: Enzymatic Data; read-out: PI3K beta IC50 [umol]. A digest of the protocol: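 PI3Kβ (25 nM, BV-949) with 10 μg/mL phosphatidylinositol in Tris pH 7.5/MgCl2/NaCl/CHAPS/DTT buffer; reaction started with 1 μM ATP, 60 min at room temperature. ATP depletion read by Kinase-Glo luminescence; 8-point dilutions, IC50 by four-parameter logistic fit.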

Assay [4] addresses T4, PI3K alfa (Homo sapiens, UniProt P42336).
T4 construct: for the p110-a subunit (with a deletion of the first 20 amino acids); His tag (C); made in house; host or cells: baculovirus; Tn5 (Trichoplusia ni) or TiniPro insect cells
Kind of assay: PI3 kinase assay (Kinase-Glo luminescence), PI3K alfa. The settings on record: Enzymatic Data; read-out: PI3K alfa IC50 [umol]. The method in brief:
as §1

T4 sequence (P42336 with tags, fused parts or gaps limits assumed): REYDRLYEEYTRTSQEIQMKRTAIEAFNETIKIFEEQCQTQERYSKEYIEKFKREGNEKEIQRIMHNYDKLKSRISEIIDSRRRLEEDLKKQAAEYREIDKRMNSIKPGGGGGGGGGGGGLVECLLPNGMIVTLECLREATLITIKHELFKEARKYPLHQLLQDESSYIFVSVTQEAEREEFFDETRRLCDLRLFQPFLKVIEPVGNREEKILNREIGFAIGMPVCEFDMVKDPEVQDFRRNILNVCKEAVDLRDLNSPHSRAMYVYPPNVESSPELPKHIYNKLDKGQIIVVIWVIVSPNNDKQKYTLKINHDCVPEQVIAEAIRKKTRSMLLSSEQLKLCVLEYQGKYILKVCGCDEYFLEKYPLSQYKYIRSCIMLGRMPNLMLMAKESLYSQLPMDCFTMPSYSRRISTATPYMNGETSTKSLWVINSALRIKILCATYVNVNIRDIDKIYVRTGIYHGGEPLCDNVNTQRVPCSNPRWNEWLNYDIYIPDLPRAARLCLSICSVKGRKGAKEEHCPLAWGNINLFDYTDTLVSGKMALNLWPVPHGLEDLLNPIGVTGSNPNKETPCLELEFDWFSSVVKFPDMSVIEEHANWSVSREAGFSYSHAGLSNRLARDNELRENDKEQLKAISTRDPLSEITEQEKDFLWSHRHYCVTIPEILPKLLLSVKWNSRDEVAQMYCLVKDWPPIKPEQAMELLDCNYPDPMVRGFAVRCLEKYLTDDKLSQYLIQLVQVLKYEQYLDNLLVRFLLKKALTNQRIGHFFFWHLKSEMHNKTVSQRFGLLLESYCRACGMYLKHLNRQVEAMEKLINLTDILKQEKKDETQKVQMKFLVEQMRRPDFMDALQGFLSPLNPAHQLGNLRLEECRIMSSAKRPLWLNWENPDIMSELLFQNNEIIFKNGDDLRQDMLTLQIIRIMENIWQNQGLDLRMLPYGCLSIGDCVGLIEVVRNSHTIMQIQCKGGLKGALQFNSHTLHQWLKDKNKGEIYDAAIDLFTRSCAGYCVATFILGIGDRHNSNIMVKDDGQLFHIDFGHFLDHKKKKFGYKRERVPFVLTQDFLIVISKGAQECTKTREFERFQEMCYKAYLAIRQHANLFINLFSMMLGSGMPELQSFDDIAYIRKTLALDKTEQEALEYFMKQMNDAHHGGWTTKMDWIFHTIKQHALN
T2 sequence (P48736 144-1102 limits assumed): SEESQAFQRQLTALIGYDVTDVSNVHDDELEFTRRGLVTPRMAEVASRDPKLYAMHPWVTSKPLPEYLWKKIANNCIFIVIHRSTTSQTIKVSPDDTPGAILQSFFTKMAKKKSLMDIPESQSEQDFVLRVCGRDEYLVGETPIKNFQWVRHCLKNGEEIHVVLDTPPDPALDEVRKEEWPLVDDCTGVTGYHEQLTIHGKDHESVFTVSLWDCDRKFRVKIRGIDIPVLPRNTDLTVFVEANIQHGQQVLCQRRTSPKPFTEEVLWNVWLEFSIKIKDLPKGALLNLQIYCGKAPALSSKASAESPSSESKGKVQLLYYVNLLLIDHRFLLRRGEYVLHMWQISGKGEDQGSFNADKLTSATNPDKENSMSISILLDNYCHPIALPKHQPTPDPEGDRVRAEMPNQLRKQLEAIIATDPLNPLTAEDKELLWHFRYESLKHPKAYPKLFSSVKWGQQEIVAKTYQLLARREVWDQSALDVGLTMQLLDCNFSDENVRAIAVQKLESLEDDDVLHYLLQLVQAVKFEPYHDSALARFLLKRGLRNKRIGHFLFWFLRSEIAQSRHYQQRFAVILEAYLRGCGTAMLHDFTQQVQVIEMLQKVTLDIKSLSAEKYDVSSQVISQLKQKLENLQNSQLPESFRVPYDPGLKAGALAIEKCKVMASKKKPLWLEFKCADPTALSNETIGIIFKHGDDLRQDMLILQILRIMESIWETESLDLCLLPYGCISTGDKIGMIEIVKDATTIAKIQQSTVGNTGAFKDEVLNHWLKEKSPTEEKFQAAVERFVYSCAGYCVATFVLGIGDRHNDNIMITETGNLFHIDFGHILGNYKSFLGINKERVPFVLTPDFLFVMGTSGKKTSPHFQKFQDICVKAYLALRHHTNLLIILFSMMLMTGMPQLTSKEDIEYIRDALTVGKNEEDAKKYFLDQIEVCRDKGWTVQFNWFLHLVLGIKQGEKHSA
T1 sequence (O00329 with tags, fused parts or gaps limits assumed): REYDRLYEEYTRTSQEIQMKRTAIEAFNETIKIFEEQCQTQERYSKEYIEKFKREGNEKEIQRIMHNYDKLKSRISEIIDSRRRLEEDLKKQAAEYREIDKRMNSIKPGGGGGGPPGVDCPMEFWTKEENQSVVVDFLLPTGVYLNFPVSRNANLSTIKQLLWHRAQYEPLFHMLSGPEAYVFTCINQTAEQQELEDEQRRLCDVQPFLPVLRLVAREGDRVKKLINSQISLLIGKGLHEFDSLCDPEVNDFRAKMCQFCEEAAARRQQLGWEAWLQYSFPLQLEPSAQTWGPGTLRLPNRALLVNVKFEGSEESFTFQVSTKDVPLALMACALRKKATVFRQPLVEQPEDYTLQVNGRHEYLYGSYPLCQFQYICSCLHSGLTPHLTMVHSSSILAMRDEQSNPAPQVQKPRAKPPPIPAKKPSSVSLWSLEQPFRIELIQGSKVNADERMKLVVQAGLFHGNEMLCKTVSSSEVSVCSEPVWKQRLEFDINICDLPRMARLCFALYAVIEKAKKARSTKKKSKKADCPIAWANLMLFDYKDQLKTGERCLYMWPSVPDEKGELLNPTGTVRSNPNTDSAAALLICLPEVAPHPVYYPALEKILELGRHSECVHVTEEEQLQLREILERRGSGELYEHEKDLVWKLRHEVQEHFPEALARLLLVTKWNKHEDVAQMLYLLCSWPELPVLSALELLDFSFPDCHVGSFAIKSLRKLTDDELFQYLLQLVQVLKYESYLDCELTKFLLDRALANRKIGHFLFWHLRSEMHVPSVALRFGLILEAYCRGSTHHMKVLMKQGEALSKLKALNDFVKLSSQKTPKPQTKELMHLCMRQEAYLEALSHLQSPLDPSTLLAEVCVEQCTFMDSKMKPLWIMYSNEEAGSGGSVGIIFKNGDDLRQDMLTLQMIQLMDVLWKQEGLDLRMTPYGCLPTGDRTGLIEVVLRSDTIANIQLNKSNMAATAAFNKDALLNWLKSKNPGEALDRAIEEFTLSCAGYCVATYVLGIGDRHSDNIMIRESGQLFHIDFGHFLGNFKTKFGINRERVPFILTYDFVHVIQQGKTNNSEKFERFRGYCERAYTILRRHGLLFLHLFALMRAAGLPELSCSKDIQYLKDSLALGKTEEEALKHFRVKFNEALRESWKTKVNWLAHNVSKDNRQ

For `Nc1ncc(-c2ccc3ncc(-c4ccc(C(=O)NCCN5CCOCC5)cc4F)n3n2)cc1C(F)(F)F` [Example 151, 4-[6-(6-Amino-5-trifluoro-methyl-pyridin-3-yl)-imidazo [1,2-b]pyridazin-3-yl]-3-fluoro-N-(2-morpholin-4-yl-ethyl)-benzamide], the IC50 in assay [1] was 27 nM; in assay [2], 946 nM; in assay [3], 141 nM; in assay [4], 8 nM.
`Nc1ncc(-c2ccc3ncc(-c4ccc(C(=O)NCCCN5CCOCC5)cc4F)n3n2)cc1C(F)(F)F` [Example 152, 4-[6-(6-Amino-5-trifluoro-methyl-pyridin-3-yl)-imidazo [1,2-b]pyridazin-3-yl]-3-fluoro-N-(3-morpholin-4-yl-propyl)-benzamide]: the IC50 in assay [1] is 13 nM; in assay [2], 485 nM; in assay [3], 40 nM; in assay [4], 9 nM.
In the case of `Nc1ncc(-c2ccc3ncc(-c4ccc(C(=O)NCCN5CCS(=O)(=O)CC5)cc4F)n3n2)cc1C(F)(F)F` [Example 153, 4-[6-(6-Amino-5-trifluoro-methyl-pyridin-3-yl)-imidazo [1,2-b]pyridazin-3-yl]-N-[2-(1,1-dioxo-1lambda*6*- thio-morpholin-4-yl)-ethyl]-3-fluoro-benzamide], the IC50 in assay [1] worked out at 13 nM; in assay [2] it was 1260 nM; in assay [3], 271 nM; in assay [4] it was 8 nM.
Consider `Nc1ncc(-c2ccc3ncc(-c4ccc(C(=O)NCCN5CCS(=O)(=O)CC5)cc4)n3n2)cc1C(F)(F)F` [Example 154, 4-[6-(6-Amino-5-trifluoro-methyl-pyridin-3-yl)-imidazo [1,2-b]pyridazin-3-yl]-N-[2-(1,1-dioxo-1lambda*6*- thio-morpholin-4-yl)-ethyl]-benzamide], for which the IC50 in assay [1] was found to be 6 nM; in assay [2], 267 nM; in assay [3], 71 nM; in assay [4], 5 nM.
The corresponding values for `Nc1ncc(-c2cnc3ccc(-c4ccc5c(c4)OCO5)nn23)cc1C(F)(F)F` [Example 155, 5-(6-Benzo[1,3]dioxol-5-yl-imidazo [1,2-b]pyridazin-3-yl)-3-trifluoro-methyl-pyridin-2-ylamine] are 174 nM, above 9100 nM, 639 nM and 70 nM.
For `Nc1ncc(-c2ccc3ncc(-c4ccc(C(=O)NCCn5ccnc5)cc4F)n3n2)cc1C(F)(F)F` [Example 156, 4-[6-(6-Amino-5-trifluoro-methyl-pyridin-3-yl)-imidazo [1,2-b]pyridazin-3-yl]-3-fluoro-N-(2-imidazol-1-yl-ethyl)-benzamide], in that order: 14 nM, 400 nM, 73 nM and 8 nM.
The corresponding values for `Nc1ncc(-c2cnc3ccc(-c4ccc(OCCNC(=O)C5CC5)cc4)nn23)cc1C(F)(F)F` [Example 157, Cyclo-propane-carboxylic acid (2-{4-[3-(6-amino-5-trifluoro-methyl-pyridin-3-yl)-imidazo [1,2-b]pyridazin-6-yl]-phenoxy}-ethyl)-amide] are 202 nM, 2040 nM, 842 nM and 21 nM.
For the compound `COc1cc(-c2cnc3ccc(-c4cnc(N)c(C(F)(F)F)c4)nn23)c(F)cc1C(=O)NCCN1CCOCC1` [Example 158, 4-[6-(6-Amino-5-trifluoro-methyl-pyridin-3-yl)-imidazo [1,2-b]pyridazin-3-yl]-5-fluoro-2-methoxy-N-(2-morpholin-4-yl-ethyl)-benzamide], the IC50 in assay [1] was 113 nM; in assay [2], above 9100 nM; in assay [3], 388 nM; in assay [4] it was 38 nM.
For `COc1cc(-c2cnc3ccc(-c4cnc(N)c(C(F)(F)F)c4)nn23)c(F)cc1C(=O)NCCCN1CCOCC1` [Example 159, 4-[6-(6-Amino-5-trifluoro-methyl-pyridin-3-yl)-imidazo [1,2-b]pyridazin-3-yl]-5-fluoro-2-methoxy-N-(3-morpholin-4-yl-propyl)-benzamide], in that order: 13 nM, 617 nM, 36 nM and 18 nM.
As to `COc1cc(-c2cnc3ccc(-c4cnc(N)c(C(F)(F)F)c4)nn23)c(F)cc1C(=O)NCCN1CCS(=O)(=O)CC1` [Example 160, 4-[6-(6-Amino-5-trifluoro-methyl-pyridin-3-yl)-imidazo [1,2-b]pyridazin-3-yl]-N-[2-(1,1-dioxo-1lambda*6*- thio-morpholin-4-yl)-ethyl]-5-fluoro-2-methoxy-benzamide], the IC50 came out at 39 nM in assay [1], 1260 nM in assay [2], 144 nM in assay [3] and 22 nM in assay [4].
For `COc1cc(-c2cnc3ccc(-c4cnc(N)c(C(F)(F)F)c4)nn23)c(F)cc1C(=O)NCCn1ccnc1` [Example 161, 4-[6-(6-Amino-5-trifluoro-methyl-pyridin-3-yl)-imidazo (1,2-b]pyridazin-3-yl]-5-fluoro-N-(2-imidazol-1-yl-ethyl)-2-methoxy-benzamide], in that order: 9 nM, 2400 nM, 28 nM and 3 nM.
The corresponding values for `CC(C)(C)OC(=O)N1CCC(Oc2ccc(-c3ccc4ncc(-c5cnc(N)c(C(F)(F)F)c5)n4n3)cc2)CC1` [Example 162, 4-{4-[3-(6-Amino-5-trifluoro-methyl-pyridin-3-yl)-imidazo [1,2-b]pyridazin-6-yl]-phenoxy}-piperidine-1-carboxylic acid tert-butyl ester] are above 9100 nM, above 9100 nM, above 9100 nM and 379 nM.
For `Nc1ncc(-c2cnc3ccc(-c4ccc(OCCCN5CCNC5=O)cc4)nn23)cc1C(F)(F)F` [Example 163, 1-(3-{4-[3-(6-Amino-5-trifluoro-methyl-pyridin-3-yl)-imidazo [1,2-b]pyridazin-6-yl]-phenoxy}-propyl)-imidazolidin-2-one], in that order: 86 nM, 1890 nM, 908 nM and 69 nM.
Take `COc1cc(-c2ccc3ncc(-c4cnc(N)c(C(F)(F)F)c4)n3n2)ccc1OCCCN1CCNC1=O` [Example 164, 1-(3-{4-[3-(6-Amino-5-trifluoro-methyl-pyridin-3-yl)-imidazo [1,2-b]pyridazin-6-yl]-2-methoxy-phenoxy}-propyl)-imidazolidin-2-one]: the IC50 turned out to be 26 nM in assay [1], 453 nM in assay [2], 154 nM in assay [3] and 6 nM in assay [4].
Regarding `Nc1ncc(-c2cnc3ccc(-c4ccc(OC5CCNCC5)cc4)nn23)cc1C(F)(F)F` [Example 165, 5-{6-[4-(Piperidin-4-yloxy)-phenyl]-imidazo [1,2-b]pyridazin-3-yl}-3-trifluoro-methyl-pyridin-2-ylamine], the IC50 worked out at 207 nM in assay [1], 371 nM in assay [2], 355 nM in assay [3] and 131 nM in assay [4].
For `COc1cc(-c2ccc3ncc(-c4cnc(N)c(C(F)(F)F)c4)n3n2)ccc1OC1CCNCC1` [Example 166, 5-{6-(3-Methoxy-4-(piperidin-4-yloxy)-phenyl]-imidazo [1,2-b]pyridazin-3-yl}-3-trifluoro-methyl-pyridin-2-ylamine], in that order: 41 nM, 556 nM, 204 nM and 50 nM.
The corresponding values for `NCC1(COc2ccc(-c3ccc4ncc(-c5cnc(N)c(C(F)(F)F)c5)n4n3)cc2)COC1` [Example 169, 5-{6-[4-(3-Aminomethyl-oxetan-3-ylmethoxy)-phenyl]-imidazo[1,2-b]pyridazin-3-yl}-3-trifluoromethyl-pyridin-2-ylamine] are 53 nM, 324 nM, 82 nM and 45 nM.
In the case of `Nc1ncc(-c2ccc3ncc(-c4ccc(OCCCN5CCOCC5)cc4)n3n2)cc1C(F)(F)F` [Example 171, 5-{3-[4-(3-Morpholin-4-yl-propoxy)-phenyl]-imidazo [1,2-b]pyridazin-6-yl}-3-trifluoro-methyl-pyridin-2-ylamine], the IC50 is 61 nM in assay [1], 480 nM in assay [2], 185 nM in assay [3] and 49 nM in assay [4].
